Assay results taken from PubChem BioAssay AID248 (DTP/NCI, 2004).
Where “and” joins values, the source holds several entries; their conditions need not be identical. Equal values may be shown once. Toxic doses and inconclusive results are not listed.

System: L1210 leukemia ip in BDF1 mice, survival T/C
Assay: NCI In Vivo Anticancer Drug Screen. Data for tumor model L1210 Leukemia (intraperitoneal) in B6D2F1 (BDF1) mice
Conditions: endpoint: mean survival time, higher = longer survival
Method in brief: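 Mice bearing the transplanted tumor received compound or vehicle. Survival of the treated group was divided by that of the vehicle-treated control group to give the ratio.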

[N-]=[N+]=CC(=O)NCC(=O)NN
T/C (dose: 50.0 mg/kg/injection, schedule: Q01DX Z (sc), vehicle: steriod suspending solution): 101 % of control | T/C (dose: 50.0 mg/kg/injection, schedule: Q02DX Z (ip), vehicle: saline): 102 % of control | T/C (dose: 50.0 mg/kg/injection, schedule: Q03DX Z (ip), vehicle: saline): 101 % of control | T/C (dose: 100.0 mg/kg/injection, schedule: Q01DX001 (ip), vehicle: saline): 108 % of control | T/C (dose: 100.0 mg/kg/injection, schedule: Q01DX005 (ip), vehicle: other): 114 % of control | T/C (dose: 100.0 mg/kg/injection, schedule: Q01DX009 (ip), vehicle: other): 115 % of control | T/C (dose: 100.0 mg/kg/injection, schedule: Q01DX009 (ip), vehicle: saline): 119 % of control | T/C (dose: 100.0 mg/kg/injection, schedule: Q01DX Z (sc), vehicle: steriod suspending solution): 101 % of control | T/C (dose: 100.0 mg/kg/injection, schedule: Q02DX Z (ip), vehicle: saline): 108 % of control | T/C (dose: 100.0 mg/kg/injection, schedule: Q03DX Z (ip), vehicle: saline): 108 % of control | T/C (dose: 100.0 mg/kg/injection, schedule: Q## X008 (ip), vehicle: water): 98 % of control | T/C (dose: 125.0 mg/kg/injection, schedule: Q01DX006 (iv), vehicle: saline): 98 % of control | T/C (dose: 125.0 mg/kg/injection, schedule: Q01DX009 (ip), vehicle: other): 118 % of control | T/C (dose: 125.0 mg/kg/injection, schedule: Q01DX009 (sc), vehicle: other): 100 % of control | T/C (dose: 125.0 mg/kg/injection, schedule: Q01DX017 (ip), vehicle: saline): 121 % of control | T/C (dose: 125.0 mg/kg/injection, schedule: Q01DX Z (ip), vehicle: other): 116 % of control | T/C (dose: 200.0 mg/kg/injection, schedule: Q01DX001 (ip), vehicle: saline): 110 % of control | T/C (dose: 200.0 mg/kg/injection, schedule: Q01DX Z (ip), vehicle: water): 124 % of control | T/C (dose: 200.0 mg/kg/injection, schedule: Q01DX Z (sc), vehicle: steriod suspending solution): 98 % of control | T/C (dose: 200.0 mg/kg/injection, schedule: Q03DX Z (ip), vehicle: saline): 154 % of control | T/C (dose: 200.0 mg/kg/injection, schedule: Q## X008 (ip), vehicle: water): 98 % of control | T/C (dose: 225.0 mg/kg/injection, schedule: Q01DX Z (ip), vehicle: saline): 124 % of control | T/C (dose: 225.0 mg/kg/injection, schedule: Q01DX Z (ip), vehicle: water): 121 % of control | T/C (dose: 250.0 mg/kg/injection, schedule: Q01DX006 (iv), vehicle: saline): 106 % of control | T/C (dose: 250.0 mg/kg/injection, schedule: Q01DX009 (ip), vehicle: other): 156 % of control | T/C (dose: 250.0 mg/kg/injection, schedule: Q01DX009 (sc), vehicle: other): 108 % of control | T/C (dose: 250.0 mg/kg/injection, schedule: Q01DX017 (ip), vehicle: saline): 124 % of control | T/C (dose: 250.0 mg/kg/injection, schedule: Q01DX Z (ip), vehicle: other): 123 % of control | T/C (dose: 250.0 mg/kg/injection, schedule: Q02DX005 (ip), vehicle: saline): 121 % of control | T/C (dose: 250.0 mg/kg/injection, schedule: Q04DX003 (ip), vehicle: saline): 110 % of control | T/C (dose: 250.0 mg/kg/injection, schedule: Q08DX002 (ip), vehicle: other): 112 % of control | T/C (dose: 250.0 mg/kg/injection, schedule: Q## X005 (ip), vehicle: saline): 111 % of control | T/C (dose: 300.0 mg/kg/injection, schedule: Q01DX009 (sc), vehicle: other): 118 % of control | T/C (dose: 375.0 mg/kg/injection, schedule: Q01DX Z (ip), vehicle: other): 160 % of control | T/C (dose: 400.0 mg/kg/injection, schedule: Q01DX001 (ip), vehicle: saline): 106 % of control | T/C (dose: 400.0 mg/kg/injection, schedule: Q01DX005 (ip), vehicle: other): 150 % of control | T/C (dose: 400.0 mg/kg/injection, schedule: Q01DX009 (ip), vehicle: saline): 156 % of control | T/C (dose: 400.0 mg/kg/injection, schedule: Q01DX Z (im), vehicle: other): 112 % of control | T/C (dose: 400.0 mg/kg/injection, schedule: Q01DX Z (ip), vehicle: other): 157 % of control | T/C (dose: 400.0 mg/kg/injection, schedule: Q01DX Z (oral), vehicle: other): 102 % of control | T/C (dose: 400.0 mg/kg/injection, schedule: Q01DX Z (oral), vehicle: saline): 116 % of control | T/C (dose: 400.0 mg/kg/injection, schedule: Q## X008 (ip), vehicle: water): 103 % of control | T/C (dose: 500.0 mg/kg/injection, schedule: Q01DX001 (ip), vehicle: saline): 111 % of control and 117 % of control | T/C (dose: 500.0 mg/kg/injection, schedule: Q01DX006 (iv), vehicle: saline): 110 % of control | T/C (dose: 500.0 mg/kg/injection, schedule: Q01DX009 (sc), vehicle: other): 118 % of control | T/C (dose: 500.0 mg/kg/injection, schedule: Q01DX Z (ip), vehicle: other): 118 % of control and 124 % of control | T/C (dose: 500.0 mg/kg/injection, schedule: Q01DX Z (ip), vehicle: water): 90 % of control | T/C (dose: 500.0 mg/kg/injection, schedule: Q## X005 (ip), vehicle: saline): 114 % of control | T/C (dose: 500.0 mg/kg/injection, schedule: Q## X024 (ip), vehicle: water): 112 % of control | T/C (dose: 600.0 mg/kg/injection, schedule: Q01DX009 (ip), vehicle: saline): 117 % of control | T/C (dose: 600.0 mg/kg/injection, schedule: Q01DX Z (im), vehicle: other): 120 % of control | T/C (dose: 600.0 mg/kg/injection, schedule: Q01DX Z (ip), vehicle: water): 150 % of control | T/C (dose: 600.0 mg/kg/injection, schedule: Q01DX Z (sc), vehicle: other): 115 % of control | T/C (dose: 600.0 mg/kg/injection, schedule: Q## X008 (ip), vehicle: water): 109 % of control | T/C (dose: 750.0 mg/kg/injection, schedule: Q01DX009 (sc), vehicle: other): 118 % of control | T/C (dose: 750.0 mg/kg/injection, schedule: Q01DX Z (ip), vehicle: other): 123 % of control | T/C (dose: 800.0 mg/kg/injection, schedule: Q01DX Z (im), vehicle: other): 101 % of control | T/C (dose: 800.0 mg/kg/injection, schedule: Q01DX Z (ip), vehicle: other): 124 % of control | T/C (dose: 800.0 mg/kg/injection, schedule: Q01DX Z (oral), vehicle: other): 117 % of control | T/C (dose: 800.0 mg/kg/injection, schedule: Q01DX Z (oral), vehicle: saline): 122 % of control | T/C (dose: 800.0 mg/kg/injection, schedule: Q01DX Z (sc), vehicle: other): 91 % of control | T/C (dose: 800.0 mg/kg/injection, schedule: Q02DX005 (ip), vehicle: saline): 183 % of control | T/C (dose: 800.0 mg/kg/injection, schedule: Q02DX Z (ip), vehicle: other): 182 % of control | T/C (dose: 800.0 mg/kg/injection, schedule: Q03DX Z (ip), vehicle: other): 150 % of control | T/C (dose: 1000.0 mg/kg/injection, schedule: Q01DX001 (ip), vehicle: saline): 115 % of control | T/C (dose: 1000.0 mg/kg/injection, schedule: Q01DX001 (sc), vehicle: other): 108 % of control | T/C (dose: 1000.0 mg/kg/injection, schedule: Q01DX006 (iv), vehicle: saline): 109 % of control | T/C (dose: 1000.0 mg/kg/injection, schedule: Q01DX Z (ip), vehicle: other): 100 % of control | T/C (dose: 1000.0 mg/kg/injection, schedule: Q02DX009 (ip), vehicle: saline): 119 % of control | T/C (dose: 1000.0 mg/kg/injection, schedule: Q04DX003 (ip), vehicle: other): 162 % of control | T/C (dose: 1000.0 mg/kg/injection, schedule: Q04DX003 (ip), vehicle: saline): 156 % of control | T/C (dose: 1000.0 mg/kg/injection, schedule: Q## X005 (ip), vehicle: saline): 158 % of control | T/C (dose: 1200.0 mg/kg/injection, schedule: Q02DX Z (ip), vehicle: other): 98 % of control | T/C (dose: 1200.0 mg/kg/injection, schedule: Q03DX Z (ip), vehicle: other): 156 % of control | T/C (dose: 1250.0 mg/kg/injection, schedule: Q03HX016 (ip), vehicle: saline): 105 % of control | T/C (dose: 1500.0 mg/kg/injection, schedule: Q01DX001 (ip), vehicle: other): 150 % of control | T/C (dose: 1500.0 mg/kg/injection, schedule: Q01DX001 (ip), vehicle: saline): 150 % of control | T/C (dose: 1500.0 mg/kg/injection, schedule: Q01DX001 (sc), vehicle: other): 107 % of control | T/C (dose: 1500.0 mg/kg/injection, schedule: Q03HX016 (ip), vehicle: saline): 96 % of control | T/C (dose: 1500.0 mg/kg/injection, schedule: Q04DX003 (ip), vehicle: saline): 180 % of control | T/C (dose: 1500.0 mg/kg/injection, schedule: Q08DX002 (ip), vehicle: saline): 164 % of control | T/C (dose: 1500.0 mg/kg/injection, schedule: Q## X024 (ip), vehicle: water): 154 % of control | T/C (dose: 1600.0 mg/kg/injection, schedule: Q01DX Z (ip), vehicle: other): 150 % of control | T/C (dose: 1750.0 mg/kg/injection, schedule: Q03HX016 (ip), vehicle: saline): 102 % of control | T/C (dose: 2000.0 mg/kg/injection, schedule: Q01DX001 (ip), vehicle: other): 168 % of control | T/C (dose: 2000.0 mg/kg/injection, schedule: Q01DX001 (sc), vehicle: other): 118 % of control | T/C (dose: 2000.0 mg/kg/injection, schedule: Q03HX016 (ip), vehicle: saline): 111 % of control | T/C (dose: 2000.0 mg/kg/injection, schedule: Q## X005 (ip), vehicle: saline): 104 % of control
